What was measured:
S. aureus ATCC 43300 [1] = experiment: Periprosthetic joint infection (PJI) model; assay type: in vivo, ICR mice; conditions: day 7, alone or in combination, i.p.
S. aureus [2] = experiment: Peritonitis-sepsis model; assay type: in vivo, ICR mice; conditions: single use, i.p., 24 h postinfection, vs vehicle
Experimental: Peritonitis-sepsis model. Six to seven-week-old female ICR mice were included. […] Mice were injected with 500 μL of the suspension in the presence of 5% mucin by i.p.. An hour post-infection, the mice were administered with: 1) EL+ethanol, 2) […]-0546 (30 mg/kg), and 3) STK848198 (30 mg/kg) alone or in combination with ampicillin (AMP, 25 mg/kg)^38 or amikacin (AMK, 25 mg/kg).

S. aureus [3] = experiment: MIC determination by microbroth dilution; assay type: cell-based, Staphylococcus aureus; conditions: for antimicrobial activity (in words): structure-activity relationship of C218-0546 analogs (Figure S1)
Experimental: Minimal inhibitory concentration (MIC) determination. The detection of MIC was performed by the microbroth dilution method with reference to the previously report by Wang et al^2. Briefly, the fresh bacterial suspension was adjusted to a McF standard equivalent of 0.5 (~1.5 × 10^8 CFU/mL) and then 100-fold diluted with MH broth. Fifty microliters of bacterial suspension with equal volume of serially diluted compounds (1-128 µg/mL) were added into a 96-well cell plate (Corning Costar, the United States) and incubated at 37°C for 16-18 h. The bacterial suspension without compounds was used as a negative control. The lowest concentration that inhibited visible bacterial growth was considered as the value of MIC.

S. aureus ATCC 43300 [4] = experiment: One-step resistance assay (spontaneous resistance frequency); assay type: cell-based; conditions: 1◊MIC
Experimental: Resistance inducing assay. Consecutive and one-step resistance experiments were performed to assess the resistance-inducing ability of the compounds against S. aureus. For consecutive resistance assay, the MICs of compounds and ciprofloxacin (CIP) were determined on the first day. […] Subsequently, the equal volume of bacterial suspension was added to the serial concentrations of compounds or CIP into a 96-well plate, the new MICs were recorded every 24h for a total of 15 days. After 15 days of passages, the CIP-induced resistant S. aureus strains were obtained. And the antimicrobial activity of the compounds against the CIP-induced strains were assessed by microdilution assay as described above. For one-step resistance assay, overnight cultured S. aureus was adjusted to a final concentration of approximately OD630=0.5 with sterile saline. One hundred microliters of the bacterial suspension were uniformly spread in pre-prepared MH agar plates containing a specific concentration of compounds. Rifampicin (RFP) was used as a positive control. The viable cells were counted on the plates after incubation at 37°C for 48h. The frequency of spontaneous drug resistance mutation was defined as the ratio of the number of resistant CFU counts to the initial CFU counts^3.

CC1(C)S[C@@H]2[C@H](NC(=O)[C@H](N)c3ccccc3)C(=O)N2[C@H]1C(=O)O [AMP, ampicillin, reference compound]
no statistical difference: bacterial loads in organs (S. aureus [2])
reduce the bacterial loads: bacterial loads in the joint and its surrounding tissue (S. aureus ATCC 43300 [1])

Cc1ccc(CNC(=O)c2c[nH]n3c(=O)c(Cc4ccc(Cl)cc4)c(C)nc23)cc1 [C218-0468]
did not optimize the MIC values: antimicrobial activity (in words) (S. aureus [3])

CCCCCCCCCC(=O)N[C@@H](Cc1c[nH]c2ccccc12)C(=O)N[C@H](CC(N)=O)C(=O)N[C@@H](CC(=O)O)C(=O)N[C@@H]1C(=O)NCC(=O)N[C@@H](CCCN)C(=O)N[C@@H](CC(=O)O)C(=O)N[C@H](C)C(=O)N[C@@H](CC(=O)O)C(=O)NCC(=O)N[C@H](CO)C(=O)N[C@@H]([C@H](C)CC(=O)O)C(=O)N[C@@H](CC(=O)c2ccccc2N)C(=O)O[C@@H]1C [DAP, daptomycin]
32 µg/mL: MIC (S. aureus [3]; SAJ1 (VISA))
1 µg/mL: MIC (S. aureus [3]; ATCC 25923) | MIC (S. aureus [3]; ATCC 43300) | MIC (S. aureus [3]; LZB1) | MIC (S. aureus [3]; SA1901) | MIC (S. aureus [3]; SA1902) | MIC (S. aureus [3]; SA1909) | MIC (S. aureus [3]; SA1910) | MIC (S. aureus [3]; SA1912) | MIC (S. aureus [3]; SA1913) | MIC (S. aureus [3]; SA1915) | MIC (S. aureus [3]; USA300)
2 µg/mL: MIC (S. aureus [3]; Newman) | MIC (S. aureus [3]; R0645) | MIC (S. aureus [3]; R82174) | MIC (S. aureus [3]; SA1911) | MIC (S. aureus [3]; SA1914)

CO[C@H]1/C=C/O[C@@]2(C)Oc3c(C)c(O)c4c(O)c(c(/C=N/N5CCN(C)CC5)c(O)c4c3C2=O)NC(=O)/C(C)=C\C=C\[C@H](C)[C@H](O)[C@@H](C)[C@@H](O)[C@@H](C)[C@H](OC(C)=O)[C@@H]1C [RFP, Rifampicin]
(2.83±2.9) ×10^-7: Spontaneous resistance frequency (mean±SD) (S. aureus ATCC 43300 [4])

Cc1nc2c(C#N)c[nH]n2c(=O)c1Cc1ccccc1 [STK584829]
vanished antimicrobial activity: antimicrobial activity (in words) (S. aureus [3])

Cc1nc2oc3ccccc3c(=O)c2c2nc3ccccc3n12 [STK585953]
reduce the antimicrobial ability: antimicrobial activity (in words) (S. aureus [3])

CN[C@H](CC(C)C)C(=O)N[C@H]1C(=O)N[C@@H](CC(N)=O)C(=O)N[C@H]2C(=O)N[C@H]3C(=O)N[C@H](C(=O)N[C@H](C(=O)O)c4cc(O)cc(O)c4-c4cc3ccc4O)[C@H](O)c3ccc(c(Cl)c3)Oc3cc2cc(c3O[C@@H]2O[C@H](CO)[C@@H](O)[C@H](O)[C@H]2O[C@H]2C[C@](C)(N)[C@H](O)[C@H](C)O2)Oc2ccc(cc2Cl)[C@H]1O [VAN, vancomycin]
0.5 µg/mL: MIC (S. aureus [3]; SA1902)
4 µg/mL: MIC (S. aureus [3]; SAJ1 (VISA))
2 µg/mL: MIC (S. aureus [3]; Newman)
1 µg/mL: MIC (S. aureus [3]; ATCC 25923) | MIC (S. aureus [3]; ATCC 43300) | MIC (S. aureus [3]; LZB1) | MIC (S. aureus [3]; R0645) | MIC (S. aureus [3]; R82174) | MIC (S. aureus [3]; SA1901) | MIC (S. aureus [3]; SA1909) | MIC (S. aureus [3]; SA1910) | MIC (S. aureus [3]; SA1911) | MIC (S. aureus [3]; SA1912) | MIC (S. aureus [3]; SA1913) | MIC (S. aureus [3]; SA1914) | MIC (S. aureus [3]; SA1915) | MIC (S. aureus [3]; USA300)

Reference: paper PMC11707430, “Novel antibiotics against Staphylococcus aureus without detectable resistance by targeting proton motive force and FtsH” (MedComm, 2025)
